Twelve compounds from ChEMBL document CHEMBL5223116, “Combination of NSAIDs with donepezil as multi-target directed ligands for the treatment of Alzheimer's disease” (Bioorg Med Chem Lett, 2022) can be followed below.

The target of data set [1] is T1, Acetylcholinesterase (Homo sapiens, UniProt P22303). Description: Inhibition of AChE (unknown origin) by Ellman's method.
The target in data set [2] is T2, Cholinesterase (Homo sapiens, UniProt P06276). The experiment in a line: Inhibition of BChE (unknown origin) by Ellman's method. In general terms: In Ellman's method for cholinesterases, released thiocholine reacts with DTNB.
T2 sequence (P06276 whole entry): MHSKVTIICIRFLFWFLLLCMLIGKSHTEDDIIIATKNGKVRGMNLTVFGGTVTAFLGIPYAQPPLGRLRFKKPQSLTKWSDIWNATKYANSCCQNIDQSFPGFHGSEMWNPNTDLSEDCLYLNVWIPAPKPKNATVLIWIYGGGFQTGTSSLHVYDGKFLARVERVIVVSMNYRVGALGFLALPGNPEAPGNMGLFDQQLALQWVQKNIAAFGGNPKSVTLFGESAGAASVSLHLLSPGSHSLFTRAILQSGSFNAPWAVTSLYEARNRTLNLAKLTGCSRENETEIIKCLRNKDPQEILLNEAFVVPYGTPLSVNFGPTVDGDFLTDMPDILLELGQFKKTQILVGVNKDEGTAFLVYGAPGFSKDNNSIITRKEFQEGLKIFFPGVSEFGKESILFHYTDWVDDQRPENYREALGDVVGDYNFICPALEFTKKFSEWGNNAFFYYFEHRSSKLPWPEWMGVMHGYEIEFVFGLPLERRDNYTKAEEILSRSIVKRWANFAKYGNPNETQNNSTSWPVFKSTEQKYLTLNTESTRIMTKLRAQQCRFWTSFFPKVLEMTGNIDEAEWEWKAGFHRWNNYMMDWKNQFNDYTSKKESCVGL
Data set [3] concerns the target T1, Acetylcholinesterase. The experiment in a line: Inhibition of AChE (unknown origin) at 10 uM by Ellman's method.
Data set [4] has as its target T2, Cholinesterase. Description: Inhibition of BChE (unknown origin) at 10 uM by Ellman's method.
In data set [5] the target is Prostaglandin G/H synthase 1 (Homo sapiens) (UniProt P23219). The experiment in a line: Inhibition of COX-1 (unknown origin) by enzyme immunoassay.
Chain of Prostaglandin G/H synthase 1 (Homo sapiens) (P23219 whole entry): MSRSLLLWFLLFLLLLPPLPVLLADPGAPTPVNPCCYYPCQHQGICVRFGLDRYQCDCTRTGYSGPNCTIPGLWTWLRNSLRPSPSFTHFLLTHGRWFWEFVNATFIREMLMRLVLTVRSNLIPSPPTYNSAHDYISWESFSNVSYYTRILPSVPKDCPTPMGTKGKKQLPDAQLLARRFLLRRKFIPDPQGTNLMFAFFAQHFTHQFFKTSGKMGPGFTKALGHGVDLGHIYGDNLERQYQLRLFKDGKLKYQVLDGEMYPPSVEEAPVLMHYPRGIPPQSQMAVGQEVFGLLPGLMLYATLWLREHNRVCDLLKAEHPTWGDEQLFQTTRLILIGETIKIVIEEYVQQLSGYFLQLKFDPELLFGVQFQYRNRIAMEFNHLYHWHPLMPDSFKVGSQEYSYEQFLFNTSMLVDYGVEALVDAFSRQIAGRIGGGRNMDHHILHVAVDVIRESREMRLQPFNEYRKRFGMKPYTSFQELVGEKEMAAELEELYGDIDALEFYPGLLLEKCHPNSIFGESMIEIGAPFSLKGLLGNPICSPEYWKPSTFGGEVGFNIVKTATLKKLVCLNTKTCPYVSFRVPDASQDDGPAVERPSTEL
For data set [6], the target named is T3, Prostaglandin G/H synthase 2 (Homo sapiens) (UniProt P35354).
T3 sequence (whole entry): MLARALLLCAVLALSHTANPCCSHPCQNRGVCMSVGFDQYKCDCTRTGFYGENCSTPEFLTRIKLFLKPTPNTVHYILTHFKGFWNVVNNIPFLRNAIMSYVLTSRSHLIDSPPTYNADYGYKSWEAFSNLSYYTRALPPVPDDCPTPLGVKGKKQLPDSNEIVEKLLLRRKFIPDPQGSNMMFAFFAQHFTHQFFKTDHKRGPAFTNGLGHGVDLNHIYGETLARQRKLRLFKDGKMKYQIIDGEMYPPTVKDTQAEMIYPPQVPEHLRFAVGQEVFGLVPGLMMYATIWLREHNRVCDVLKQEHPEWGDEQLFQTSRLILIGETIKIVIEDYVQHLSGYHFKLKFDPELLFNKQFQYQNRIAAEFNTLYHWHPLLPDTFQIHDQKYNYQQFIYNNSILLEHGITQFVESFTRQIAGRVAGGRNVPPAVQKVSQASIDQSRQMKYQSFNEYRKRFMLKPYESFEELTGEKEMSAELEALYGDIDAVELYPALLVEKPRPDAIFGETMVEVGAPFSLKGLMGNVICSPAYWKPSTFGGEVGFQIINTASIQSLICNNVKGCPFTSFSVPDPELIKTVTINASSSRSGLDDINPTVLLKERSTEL
Description: Inhibition of COX-2 (unknown origin) by enzyme immunoassay.

Data set [7] concerns BV-2. Description: Antiinflammatory activity in mouse BV-2 cells assessed as decrease in LPS-induced IL-1beta secretion at 5 uM preincubated for 6 hrs followed by LPS stimulation and measured after 24 hrs by qRT-PCR analysis (reference value: 3.76). Conditions: time 30 hrs. The class given is functional.
Data set [8] concerns BV-2. Description: Antiinflammatory activity in mouse BV-2 cells assessed as decrease in LPS-induced IL-1beta secretion at 10 uM preincubated for 6 hrs followed by LPS stimulation and measured after 24 hrs by qRT-PCR analysis (reference value: 3.76). The class given is functional. Conditions: time 30 hrs. (Quantitative PCR measures a nucleic acid by following its amplification.)

Data set [9] concerns BV-2. Description: Antiinflammatory activity in mouse BV-2 cells assessed as decrease in LPS-induced TNFalpha secretion at 5 uM preincubated for 6 hrs followed by LPS stimulation and measured after 24 hrs by qRT-PCR analysis (reference value: 3.91). The following applies: time 30 hrs. It counts as functional.
Data set [10] has as its system BV-2. The experiment in a line: Antiinflammatory activity in mouse BV-2 cells assessed as decrease in LPS-induced TNFalpha secretion at 10 uM preincubated for 6 hrs followed by LPS stimulation and measured after 24 hrs by qRT-PCR analysis (reference value: 3.91). The class given is functional. The following applies: time 30 hrs.
Data set [11] relates to PC-3. Description: Cytotoxicity against […] cells assessed as reduction in cell viability at 0.1 to 10 uM by MTT assay. It counts as toxicity, cell-based. The following applies: dose 0.1-10 µM.
Data set [12] has as its system PC-3. The experiment in a line: Neuroprotective activity against Abeta42-induced cell death in […] cells by MTT assay. It counts as functional, cell-based. The following applies: dose 0.1-10 µM. (Formazan colour is commonly taken as a measure of viable cells.)
Data set [13] can be described thus: Stability of compound in PBS at pH 7.4 measured after 48 hrs by HPLC analysis. The following applies: buffer, pH 7.4, 48 h. It counts as physicochemical.
Data set [14] deals with T2, Cholinesterase. The experiment in a line: Potency index, ratio of donepezil IC50 to test compound IC50 for BChE (unknown origin).

Active and inactive are the calls of the source. No cut-off for these calls is given here.

T1 sequence (P22303 whole entry): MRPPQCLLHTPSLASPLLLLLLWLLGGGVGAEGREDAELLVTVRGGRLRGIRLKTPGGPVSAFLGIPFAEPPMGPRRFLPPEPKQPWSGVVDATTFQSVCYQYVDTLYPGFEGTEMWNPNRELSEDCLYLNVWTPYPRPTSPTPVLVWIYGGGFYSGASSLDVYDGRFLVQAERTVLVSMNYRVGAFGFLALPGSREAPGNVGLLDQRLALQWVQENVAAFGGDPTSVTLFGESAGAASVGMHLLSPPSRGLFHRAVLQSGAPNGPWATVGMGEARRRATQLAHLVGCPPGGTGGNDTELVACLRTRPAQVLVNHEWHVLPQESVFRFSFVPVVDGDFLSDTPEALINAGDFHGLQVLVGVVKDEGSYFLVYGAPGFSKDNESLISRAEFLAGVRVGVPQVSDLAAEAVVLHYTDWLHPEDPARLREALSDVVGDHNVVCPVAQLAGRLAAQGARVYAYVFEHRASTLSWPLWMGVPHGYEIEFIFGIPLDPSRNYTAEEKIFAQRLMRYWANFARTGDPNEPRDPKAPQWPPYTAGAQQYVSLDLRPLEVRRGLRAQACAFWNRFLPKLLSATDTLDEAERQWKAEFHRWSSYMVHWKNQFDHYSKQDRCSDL

For `COc1cc2c(cc1OC)/C(=N\NC(=O)C(CC(C)C)NC(=O)C(C)c1ccc(CC(C)C)cc1)C(CC1CCN(Cc3ccccc3)CC1)C2` (centres undefined), the IC50 (commonly the concentration at which inhibition is half-maximal) against Acetylcholinesterase [1] is 350 nM; against Cholinesterase [2], 20200 nM.

Take `COc1cc2c(cc1OC)/C(=N\NC(=O)C(NC(=O)C(C)c1ccc(CC(C)C)cc1)C(C)C)C(CC1CCN(Cc3ccccc3)CC1)C2` (centres undefined): the figures for the IC50 at Acetylcholinesterase [1] and against Cholinesterase [2] were 400 nM and 3230 nM, respectively.

Take `COc1ccc2c(c1)c(CC(=O)N/N=C1\c3cc(OC)c(OC)cc3CC1CC1CCN(Cc3ccccc3)CC1)c(C)n2C(=O)c1ccc(Cl)cc1` (centres undefined): the values for the IC50 against Acetylcholinesterase [1] and against Cholinesterase [2] were 510 nM and 8530 nM, respectively.

On to `COc1cc2c(cc1OC)/C(=N\NC(=O)CNC(=O)C(C)c1ccc(CC(C)C)cc1)C(CC1CCN(Cc3ccccc3)CC1)C2` (centres undefined), for which the IC50 was found to be 1190 nM on Acetylcholinesterase [1] and 1640 nM at Cholinesterase [2].

On to `COc1cc2c(cc1OC)/C(=N\NC(=O)CCNC(=O)C(C)c1ccc(CC(C)C)cc1)C(CC1CCN(Cc3ccccc3)CC1)C2` (centres undefined), for which the IC50 is 4850 nM at Acetylcholinesterase [1] and 11600 nM against Cholinesterase [2].

Take `CC(=O)Oc1ccccc1C(=O)O`: the inhibition result on Acetylcholinesterase [3] and at Cholinesterase [4] was “inactive” each time.

Turning to `COc1cc2c(cc1OC)/C(=N\N)C(CC1CCN(Cc3ccccc3)CC1)C2` (centres undefined), the IC50 was determined as 190 nM against Acetylcholinesterase [1] and 2540 nM at Cholinesterase [2].

Regarding `COc1cc2c(cc1OC)/C(=N\NC(=O)c1ccccc1OC(C)=O)C(CC1CCN(Cc3ccccc3)CC1)C2` (centres undefined), the IC50 against Acetylcholinesterase [1] is 46 nM; against Cholinesterase [2], 800 nM.

With `COc1ccc2cc([C@H](C)C(=O)N/N=C3\c4cc(OC)c(OC)cc4CC3CC3CCN(Cc4ccccc4)CC3)ccc2c1` (some centres undefined), the IC50 against Acetylcholinesterase [1] was found to be 150 nM; against Cholinesterase [2] it was 880 nM.

For `CC(C)Cc1ccc(C(C)C(=O)O)cc1` (centres undefined), the inhibition entry on Acetylcholinesterase [3] and on Cholinesterase [4] was “inactive” in each case.

Turning to `COc1cc2c(cc1OC)/C(=N\NC(=O)C(C)c1ccc(CC(C)C)cc1)C(CC1CCN(Cc3ccccc3)CC1)C2` (centres undefined), the IC50 against Acetylcholinesterase [1] is 15 nM; at Cholinesterase [2] it was 800 nM. Further, the inhibition result in [5] and in [6] was “Dose-Dependent Effect” throughout. In addition, the Activity in the data set with BV-2 [7] is 1.19; in the data set with BV-2 [8] it was 0.78; with BV-2 [9] it was 1.51; in the data set with BV-2 [10], 1.12; in the data set with PC-3 [11], “Non-Toxic”; in the data set on PC-3 [12], “Dose-Dependent Effect”. Besides, the Stability result in [13] was “Stable”. For the same compound, on Cholinesterase [14], the Ratio IC50 was 5.

Regarding `COc1ccc2c(c1)c(CC(=O)O)c(C)n2C(=O)c1ccc(Cl)cc1`, the inhibition result at Acetylcholinesterase [3] and on Cholinesterase [4] was “inactive” each time.
